Data reported in PubChem BioAssay (NCI).
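All cell lines were grown in 96-well plates and treated with compound for 48 hours. GI50 is the concentration that inhibits growth by half. At the TGI there is no net growth.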

How the values were obtained:
Test in all cases: NCI tumour cell line growth inhibition, 48 h
RPMI-8226 leukemia = tested on: RPMI-8226 leukemia
MOLT-4 leukemia = tested on: MOLT-4 leukemia
786-0 renal = tested on: 786-0 renal
BT-549 breast = tested on: BT-549 breast
M14 melanoma = tested on: M14 melanoma
SK-MEL-28 melanoma = tested on: SK-MEL-28 melanoma
RXF 393 renal = tested on: RXF 393 renal
KM12 colon = tested on: KM12 colon
HCT-116 colon = tested on: HCT-116 colon
ACHN renal = tested on: ACHN renal
SK-OV-3 ovarian = tested on: SK-OV-3 ovarian
HS 578T breast = tested on: HS 578T breast
CCRF-CEM leukemia = tested on: CCRF-CEM leukemia
UACC-257 melanoma = tested on: UACC-257 melanoma
MALME-3M melanoma = tested on: MALME-3M melanoma
U251 CNS = tested on: U251 CNS
SK-MEL-5 melanoma = tested on: SK-MEL-5 melanoma
SW-620 colon = tested on: SW-620 colon
PC-3 prostate = tested on: PC-3 prostate
OVCAR-4 ovarian = tested on: OVCAR-4 ovarian
SNB-19 CNS = tested on: SNB-19 CNS
LOX IMVI melanoma = tested on: LOX IMVI melanoma
HOP-92 NSCLC = tested on: HOP-92 NSCLC
OVCAR-8 ovarian = tested on: OVCAR-8 ovarian
NCI-H226 lung = tested on: NCI-H226 lung
MDA-MB-468 breast = tested on: MDA-MB-468 breast
SF-268 CNS = tested on: SF-268 CNS
DU-145 prostate = tested on: DU-145 prostate
OVCAR-5 ovarian = tested on: OVCAR-5 ovarian
OVCAR-3 ovarian = tested on: OVCAR-3 ovarian
NCI-H460 lung = tested on: NCI-H460 lung
UACC-62 melanoma = tested on: UACC-62 melanoma
T-47D breast = tested on: T-47D breast
HL-60(TB) leukemia = tested on: HL-60(TB) leukemia
MCF7 breast = tested on: MCF7 breast
NCI/ADR-RES ovarian = tested on: NCI/ADR-RES ovarian
MDA-MB-231 breast = tested on: MDA-MB-231 breast
EKVX NSCLC = tested on: EKVX NSCLC
SR leukemia = tested on: SR leukemia
TK-10 renal = tested on: TK-10 renal
HCT-15 colon = tested on: HCT-15 colon
NCI-H522 lung = tested on: NCI-H522 lung
SF-295 CNS = tested on: SF-295 CNS
A549 NSCLC = tested on: A549 NSCLC
UO-31 renal = tested on: UO-31 renal
A498 renal = tested on: A498 renal
SF-539 CNS = tested on: SF-539 CNS
CAKI-1 renal = tested on: CAKI-1 renal
NCI-H23 lung = tested on: NCI-H23 lung
IGROV1 ovarian = tested on: IGROV1 ovarian
SNB-75 CNS = tested on: SNB-75 CNS
MDA-MB-435 = tested on: MDA-MB-435
SN12C renal = tested on: SN12C renal
HCC-2998 colon = tested on: HCC-2998 colon
K-562 leukemia = tested on: K-562 leukemia
HT29 colon = tested on: HT29 colon
COLO 205 colon = tested on: COLO 205 colon
SK-MEL-2 melanoma = tested on: SK-MEL-2 melanoma
HOP-62 NSCLC = tested on: HOP-62 NSCLC

Nc1nc(-c2ccccc2)c(N=Nc2ccc(Cl)cc2Cl)s1
GI50 (RPMI-8226 leukemia): 3.31 µM | TGI (RPMI-8226 leukemia): 15.2 µM | GI50 (MOLT-4 leukemia): 2.73 µM | TGI (MOLT-4 leukemia): 10.3 µM | GI50 (786-0 renal): 2.48 µM | TGI (786-0 renal): 6.34 µM | GI50 (BT-549 breast): 2.43 µM | TGI (BT-549 breast): 9.74 µM | GI50 (M14 melanoma): 2.88 µM | TGI (M14 melanoma): 9.54 µM | GI50 (SK-MEL-28 melanoma): 4.69 µM | TGI (SK-MEL-28 melanoma): 16.5 µM | GI50 (RXF 393 renal): 3.02 µM | TGI (RXF 393 renal): 11.7 µM | GI50 (KM12 colon): 2.99 µM | TGI (KM12 colon): 12.8 µM | GI50 (HCT-116 colon): 3.33 µM | TGI (HCT-116 colon): 12.6 µM | GI50 (ACHN renal): 2.81 µM | TGI (ACHN renal): 12.9 µM | GI50 (SK-OV-3 ovarian): 3.86 µM | TGI (SK-OV-3 ovarian): 16.3 µM | GI50 (HS 578T breast): 3.14 µM | TGI (HS 578T breast): 17.8 µM | GI50 (CCRF-CEM leukemia): 3.13 µM | TGI (CCRF-CEM leukemia): 11 µM | GI50 (UACC-257 melanoma): 4.13 µM | TGI (UACC-257 melanoma): 16.3 µM | GI50 (MALME-3M melanoma): 5.38 µM | TGI (MALME-3M melanoma): 18.1 µM | GI50 (U251 CNS): 4.28 µM | TGI (U251 CNS): 15.8 µM | GI50 (SK-MEL-5 melanoma): 2.6 µM | TGI (SK-MEL-5 melanoma): 8.66 µM | GI50 (SW-620 colon): 2.88 µM | TGI (SW-620 colon): 13.5 µM | GI50 (PC-3 prostate): 3.16 µM | TGI (PC-3 prostate): 12.4 µM | GI50 (OVCAR-4 ovarian): 3.82 µM | TGI (OVCAR-4 ovarian): 17 µM | GI50 (SNB-19 CNS): 6.02 µM | TGI (SNB-19 CNS): 18.7 µM | GI50 (LOX IMVI melanoma): 1.83 µM | TGI (LOX IMVI melanoma): 5.17 µM | GI50 (HOP-92 NSCLC): 1.85 µM | TGI (HOP-92 NSCLC): 5.86 µM | GI50 (OVCAR-8 ovarian): 5.82 µM | TGI (OVCAR-8 ovarian): 18.7 µM | GI50 (NCI-H226 lung): 2.11 µM | TGI (NCI-H226 lung): 10.4 µM | GI50 (MDA-MB-468 breast): 0.83 µM | TGI (MDA-MB-468 breast): 3.88 µM | GI50 (SF-268 CNS): 4.91 µM | TGI (SF-268 CNS): 17.8 µM | GI50 (DU-145 prostate): 5.52 µM | TGI (DU-145 prostate): 17.8 µM | GI50 (OVCAR-5 ovarian): 3.58 µM | TGI (OVCAR-5 ovarian): 15.4 µM | GI50 (OVCAR-3 ovarian): 3.57 µM | TGI (OVCAR-3 ovarian): 13.2 µM | GI50 (NCI-H460 lung): 2.92 µM | TGI (NCI-H460 lung): 11.7 µM | GI50 (UACC-62 melanoma): 2.45 µM | TGI (UACC-62 melanoma): 12 µM | GI50 (T-47D breast): 1.03 µM | TGI (T-47D breast): 6.56 µM | GI50 (HL-60(TB) leukemia): 3.42 µM | TGI (HL-60(TB) leukemia): 12.9 µM | GI50 (MCF7 breast): 2.16 µM | TGI (MCF7 breast): 10.9 µM | GI50 (NCI/ADR-RES ovarian): 3.03 µM | TGI (NCI/ADR-RES ovarian): 10.9 µM | GI50 (MDA-MB-231 breast): 2.19 µM | TGI (MDA-MB-231 breast): 8.67 µM | GI50 (EKVX NSCLC): 2.04 µM | TGI (EKVX NSCLC): 12.3 µM | GI50 (SR leukemia): 3.1 µM | TGI (SR leukemia): 12.8 µM | GI50 (TK-10 renal): 5.25 µM | TGI (TK-10 renal): 14.9 µM | GI50 (HCT-15 colon): 2.81 µM | TGI (HCT-15 colon): 11.7 µM | GI50 (NCI-H522 lung): 2.91 µM | TGI (NCI-H522 lung): 13.3 µM | GI50 (SF-295 CNS): 3.23 µM | TGI (SF-295 CNS): 13.2 µM | GI50 (A549 NSCLC): 3.67 µM | TGI (A549 NSCLC): 14.7 µM | GI50 (UO-31 renal): 1.45 µM | TGI (UO-31 renal): 11.7 µM | GI50 (A498 renal): 6.03 µM | TGI (A498 renal): 18.4 µM | GI50 (SF-539 CNS): 2.78 µM | TGI (SF-539 CNS): 10.5 µM | GI50 (CAKI-1 renal): 2.52 µM | TGI (CAKI-1 renal): 12.3 µM | GI50 (NCI-H23 lung): 2.91 µM | TGI (NCI-H23 lung): 13.5 µM | GI50 (IGROV1 ovarian): 2.13 µM | TGI (IGROV1 ovarian): 12.7 µM | GI50 (SNB-75 CNS): 1.57 µM | TGI (SNB-75 CNS): 8.52 µM | GI50 (MDA-MB-435): 3.74 µM | TGI (MDA-MB-435): 14.4 µM | GI50 (SN12C renal): 3.81 µM | TGI (SN12C renal): 15.3 µM | GI50 (HCC-2998 colon): 1.84 µM | TGI (HCC-2998 colon): 5.41 µM | GI50 (K-562 leukemia): 3.58 µM | TGI (K-562 leukemia): 14.9 µM | GI50 (HT29 colon): 3.31 µM | TGI (HT29 colon): 10.9 µM | GI50 (COLO 205 colon): 3.91 µM | TGI (COLO 205 colon): 14.1 µM | GI50 (SK-MEL-2 melanoma): 3.03 µM | TGI (SK-MEL-2 melanoma): 12.8 µM | GI50 (HOP-62 NSCLC): 4.01 µM | TGI (HOP-62 NSCLC): 18.4 µM
